Measurements from ChEMBL document CHEMBL3885881, “DrugMatrix”.

Species: Rattus norvegicus
Experiment: DrugMatrix - Regimen: Daily Repeat
Assay type: toxicity, organism-based, Sprague-Dawley
Set-up: regimen Daily Repeat, gender Male, age 6-8 weeks
Details: in vivo, po, route oral GAVAGE, […]; for ABSOLUTE BASOPHIL / ABSOLUTE EOSINOPHIL / ABSOLUTE LYMPHOCYTE / ABSOLUTE MONOCYTE / ABSOLUTE SEGMENTED NEUTROPHIL / BASOPHIL / EOSINOPHIL / ERYTHROCYTE COUNT / HEMATOCRIT / HEMOGLOBIN / LEUKOCYTE COUNT / LYMPHOCYTE / MEAN CORPUSCULAR HEMOGLOBIN / MEAN CORPUSCULAR HEMOGLOBIN CONCENTRATION / MEAN CORPUSCULAR VOLUME / MONOCYTE / NEUTROPHIL / NUCLEATED RED BLOOD CELLS / PLATELET COUNT: tissue Blood; for ALANINE AMINOTRANSFERASE / ALBUMIN / ALKALINE PHOSPHATASE / ASPARTATE AMINOTRANSFERASE / BLOOD UREA NITROGEN / CARBON DIOXIDE / CHLORIDE / CHOLESTEROL / CREATINE PHOSPHOKINASE / CREATININE / GLUCOSE / LACTATE DEHYDROGENASE / LIPASE / PHOSPHORUS / POTASSIUM / SODIUM / TOTAL BILIRUBIN / TOTAL PROTEIN / URIC ACID: tissue Plasma
[1] = 0 mg/kg, 72 h, dose level Control, time 3 day
[2] = 0 mg/kg, 120 h, dose level Control, time 5 day
[3] = 2 mg/kg, 72 h, dose level High, time 3 day

## COc1ccc2c(c1)c(CC(=O)OCC(=O)O)c(C)n2C(=O)c1ccc(Cl)cc1 [ACEMETACIN]
[1]
  ABSOLUTE BASOPHIL: 0 CELLS/uL
  ABSOLUTE EOSINOPHIL: 138.5 CELLS/uL
  ABSOLUTE LYMPHOCYTE: 13978.67 CELLS/uL
  ABSOLUTE MONOCYTE: 391 CELLS/uL
  ABSOLUTE SEGMENTED NEUTROPHIL: 1608.5 CELLS/uL
  BASOPHIL: 0%
  EOSINOPHIL: 1%
  ERYTHROCYTE COUNT: 5.8 x10E6/uL
  HEMATOCRIT: 36.22%
  HEMOGLOBIN: 13.65 G/DL
  LEUKOCYTE COUNT: 16.12 x10E3/uL
  LYMPHOCYTE: 86.67%
  MEAN CORPUSCULAR HEMOGLOBIN: 23.58 pg
  MEAN CORPUSCULAR HEMOGLOBIN CONCENTRATION: 37.72 G/DL
  MEAN CORPUSCULAR VOLUME: 62.52 fL
  MONOCYTE: 2.5%
  NEUTROPHIL: 9.83%
  NUCLEATED RED BLOOD CELLS: 0 /100WBC
  PLATELET COUNT: 1214.17 x10E3/uL
  ALANINE AMINOTRANSFERASE: 59.5 u/L
  ALBUMIN: 4.1 G/DL
  ALKALINE PHOSPHATASE: 393.83 u/L
  ASPARTATE AMINOTRANSFERASE: 87.83 u/L
  BLOOD UREA NITROGEN: 16.33 mg/dL
  CARBON DIOXIDE: 28.17 mmol/L
  CHLORIDE: 100.83 MEQ/L
  CHOLESTEROL: 73.33 mg/dL
  CREATINE PHOSPHOKINASE: 398 u/L
  CREATININE: 0.2 mg/dL
  GLUCOSE: 152.67 mg/dL
  LACTATE DEHYDROGENASE: 501.5 u/L
  LIPASE: 9.5 u/L
  PHOSPHORUS: 10.77 mg/dL
  POTASSIUM: 6.44 MEQ/L
  SODIUM: 143.4 MEQ/L
  TOTAL BILIRUBIN: 0.17 mg/dL
  TOTAL PROTEIN: 5.92 G/DL
  URIC ACID: 1.68 mg/dL
[2]
  ABSOLUTE BASOPHIL: 0 CELLS/uL
  ABSOLUTE EOSINOPHIL: 183.33 CELLS/uL
  ABSOLUTE LYMPHOCYTE: 14952.83 CELLS/uL
  ABSOLUTE MONOCYTE: 238.5 CELLS/uL
  ABSOLUTE SEGMENTED NEUTROPHIL: 1642 CELLS/uL
  BASOPHIL: 0%
  EOSINOPHIL: 1%
  ERYTHROCYTE COUNT: 5.89 x10E6/uL
  HEMATOCRIT: 36.13%
  HEMOGLOBIN: 13.37 G/DL
  LEUKOCYTE COUNT: 17.02 x10E3/uL
  LYMPHOCYTE: 87.17%
  MEAN CORPUSCULAR HEMOGLOBIN: 22.73 pg
  MEAN CORPUSCULAR HEMOGLOBIN CONCENTRATION: 37.02 G/DL
  MEAN CORPUSCULAR VOLUME: 61.45 fL
  MONOCYTE: 1.5%
  NEUTROPHIL: 10.33%
  NUCLEATED RED BLOOD CELLS: 0 /100WBC
  PLATELET COUNT: 1183.5 x10E3/uL
  ALANINE AMINOTRANSFERASE: 54.83 u/L
  ALBUMIN: 4.28 G/DL
  ALKALINE PHOSPHATASE: 363.17 u/L
  ASPARTATE AMINOTRANSFERASE: 96.83 u/L
  BLOOD UREA NITROGEN: 15.67 mg/dL
  CARBON DIOXIDE: 26.17 mmol/L
  CHLORIDE: 102.67 MEQ/L
  CHOLESTEROL: 63.67 mg/dL
  CREATINE PHOSPHOKINASE: 594.33 u/L
  CREATININE: 0.2 mg/dL
  GLUCOSE: 182.33 mg/dL
  LACTATE DEHYDROGENASE: 656.5 u/L
  LIPASE: 9.33 u/L
  PHOSPHORUS: 11.7 mg/dL
  POTASSIUM: 5.92 MEQ/L
  SODIUM: 142.62 MEQ/L
  TOTAL BILIRUBIN: 0.13 mg/dL
  TOTAL PROTEIN: 5.85 G/DL
  URIC ACID: 1.8 mg/dL
[3]
  ABSOLUTE BASOPHIL: 0 CELLS/uL
  ABSOLUTE EOSINOPHIL: 380 CELLS/uL
  ABSOLUTE LYMPHOCYTE: 13622 CELLS/uL
  ABSOLUTE MONOCYTE: 500 CELLS/uL
  ABSOLUTE SEGMENTED NEUTROPHIL: 2164.67 CELLS/uL
  BASOPHIL: 0%
  EOSINOPHIL: 2.33%
  ERYTHROCYTE COUNT: 5.07 x10E6/uL
  HEMATOCRIT: 32.77%
  HEMOGLOBIN: 12.63 G/DL
  LEUKOCYTE COUNT: 16.67 x10E3/uL
  LYMPHOCYTE: 81.67%
  MEAN CORPUSCULAR HEMOGLOBIN: 24.97 pg
  MEAN CORPUSCULAR HEMOGLOBIN CONCENTRATION: 38.57 G/DL
  MEAN CORPUSCULAR VOLUME: 64.77 fL
  MONOCYTE: 3%
  NEUTROPHIL: 13%
  NUCLEATED RED BLOOD CELLS: 0.33 /100WBC
  PLATELET COUNT: 1026.67 x10E3/uL
  ALANINE AMINOTRANSFERASE: 66.67 u/L
  ALBUMIN: 4.07 G/DL
  ALKALINE PHOSPHATASE: 414.67 u/L
  ASPARTATE AMINOTRANSFERASE: 86 u/L
  BLOOD UREA NITROGEN: 15 mg/dL
  CARBON DIOXIDE: 28.67 mmol/L
  CHLORIDE: 101.67 MEQ/L
  CHOLESTEROL: 68 mg/dL
  CREATINE PHOSPHOKINASE: 297.67 u/L
  CREATININE: 0.19 mg/dL
  GLUCOSE: 146.67 mg/dL
  LACTATE DEHYDROGENASE: 197.67 u/L
  LIPASE: 9.33 u/L
  PHOSPHORUS: 10.4 mg/dL
  POTASSIUM: 6.36 MEQ/L
  SODIUM: 141.2 MEQ/L
  TOTAL BILIRUBIN: 0.17 mg/dL
  TOTAL PROTEIN: 5.47 G/DL
  URIC ACID: 1.13 mg/dL
